These results are taken from patent publication US4057684A, “Alkyl amino-glucopyranoside derivative and process for producing the same” (priority 1975, dated 1977).

Data set [1] deals with adenocarcinoma-755 (Ca-755). The data set is described as follows: antitumor effect against adenocarcinoma-755 (Ca-755) implanted in mice. It counts as in vivo, mouse (BDF1). From the text:
(§1) Results of pharmacological studies for amino-glucopyranoside [I] according to the invention are described below. The test compounds which were used included methyl N-carbamyl-N'-(2-chloroethyl)-N'-nitroso-2-amino-2-deoxy-α-D-glucopyranoside and methyl N-carbamyl-N'-(2-chloroethyl)-N'-nitroso-6-amino-6-deoxy-α-D-glucopyranoside (hereinafter abbreviated to 2MCαG and 6MCαG, respectively). The control compounds which were employed were 1-(2-chloroethyl)-3-cyclohexyl-1-nitrosoourea (hereinafter abbreviated to CCNU), which had been widely applied as a control compound in such a pharmacological test of the streptozotocin derivatives, and GCNU referred to previously. The tumor systems which were used were leukemia L-1210, Nakahara-Fukuoka sarcoma, adenocarcinoma-755, ascites sarcoma 180 and Ehrlich ascites carcinoma (hereinafter abbreviated to L-1210, NFS, Ca-755, S-180A and EAC, respectively), and the antitumor activities were determined by a procedure of the National Cancer Center, Tokyo (A. Hoshi et al.: Farumashia 9, 464(1973)). The test animals which were used were ICR and BDF1 mice.
(§2) ^a Treatment was initiated 24 hr after implantation of tumor (day 1):
(§3) D1~5 = qd, day 1~5; D1 = day 1 only.
(§4) ^b T/C is expressed as the tumor weight ratio in solid tumors or tota
(§5) packed cell volume ratio in ascites tumors of treated/control.

Data set [2] relates to Nakahara-Fukuoka sarcoma (NFS). Kind of data set: antitumor effect against Nakahara-Fukuoka sarcoma (NFS) implanted in mice. The class given is in vivo, mouse (ICR).
Description: as §1, §2, §3, §4, §5

Data set [3] in a line: peripheral white blood cell counts (bone marrow toxicity) and survival in normal male ICR mice. It counts as in vivo, mouse (ICR). The protocol:
Such peripheral white blood cell counts were performed as follows: Normal male ICR mice were used in groups of tens and the test compounds for treatment were made into their respective solutions. 2MCαG and 6MCαG were dissolved in physiological saline solutions, while CCNU and GCNU were suspended in 0.5% CMC aqueous solution and 50% PEG aqueous solution, respectively. A single administration at volume of 1 ml per 100 g body weight of animal (0.1 ml/10 g) was given intraperitoneally, and the peripheral white blood cell counts were performed 3, 8 and 15 days after administration of the test compounds.

The next data set concerns bacteria. The data set is described as follows: antibacterial activity, broth dilution method. For orientation: In broth dilution the organism is exposed to a series of concentrations in liquid medium.
For another data set, the system named is leukemia L-1210. The data set is described as follows: increase in life span and survival of leukemia L-1210 implanted mice. It counts as in vivo, mouse (BDF1).
Description: as §1, §2, §3
^d % increase in life span (mean survival time) over controls.
^e 60 days survivors/total in treated group.

Data set [4] has as its system Ehrlich ascites carcinoma (EAC). Kind of data set: antitumor effect against Ehrlich ascites carcinoma (EAC) implanted in mice. The class given is in vivo, mouse (ICR).
Description: as §1, §2, §3, §4, §5

The subject of data set [5] is ascites sarcoma 180 (S-180A). Kind of data set: antitumor effect against ascites sarcoma 180 (S-180A) implanted in mice. The class given is in vivo, mouse (ICR).
Description: as §1, §2, §3, §4, §5

A short description of data set [6]: blood sugar level / diabetogenic activity. The note with it: rat, in vivo. The class given is in vivo, rat (male Wister).
For data set [7], the system named is solid as well as ascites tumor systems. Kind of data set: antitumor activity in the tumor systems (overall). It counts as in vivo, mouse. The note with it: for antitumor activity compared with its α-anomer: vs α-anomer; for antitumor activity compared with the compounds of examples 1 and 4: mouse, in vivo.
Description: as §1

Where [8] appears, read: 10.0 mg/kg/day ip D1~5, BDF1 mice.
Where [9] appears, read: 25.0 mg/kg/day ip D1~5, BDF1 mice.
The mark [10] stands for this setting: 12.0 mg/kg/day ip D1~5, ICR mice.
Setting [11] is: 20.0 mg/kg/day ip D1~5, ICR mice.
Where [12] appears, read: 8.5 mg/kg/day ip, 5 successive days, BDF1 mice.
Where [13] appears, read: 12.5 mg/kg/day ip D1~5, ICR mice.
[14] abbreviates: 3.2 mg/kg/day ip, 5 successive days.

What is called T/C is the result in the treated group divided by that in the control group, in per cent. Broadly, the ILS is the gain in survival time of treated over control animals, in per cent. A low value points to little gain in survival.

`O=NN(CCCl)C(=O)NC1CCCCC1` [CCNU, 1-(2-chloroethyl)-3-cyclohexyl-1-nitrosoourea, reference compound]: the Activity entry in data set [1] (setting [8]) is given as “+++ (20~0% = +++)”; in [1] (setting [9]) it was “Toxic”; in [2] (setting [10]), “+ (70~51% = +)”; in [2] (setting [11]), “++ (50~21% = ++)”. In addition, the T/C in [1] (setting [8]) came out at 15.0%; in data set [1] (setting [9]) it was 1.1%; in data set [2] (setting [10]) it was 57.5%; in [2] (setting [11]), 48.3%. For the same compound, the died/used in [1] (setting [9]) is reported as 6/6. The “Death rate (death/used)” value in [3] (20 mg/kg ip single) is recorded as 0/10; in [3] (40 mg/kg ip single), 1/10; in data set [3] (60 mg/kg ip single), 9/10; in [3] (80 mg/kg ip single) it was 10/10. The “Average count of WBC” value in data set [3] (20 mg/kg ip single, day 3) is 38.7±2.9 x 10^2 WBC/mm^3; in data set [3] (20 mg/kg ip single, day 8), 81.8±5.0 x 10^2 WBC/mm^3; in data set [3] (20 mg/kg ip single, day 15), 100.4±9.8 x 10^2 WBC/mm^3; in data set [3] (40 mg/kg ip single, day 3), 31.5±1.7 x 10^2 WBC/mm^3; in data set [3] (40 mg/kg ip single, day 8), 59.0±6.0 x 10^2 WBC/mm^3; in data set [3] (40 mg/kg ip single, day 15), 77.9±9.0 x 10^2 WBC/mm^3. Moreover, the “Average count of WBC” value is listed as 27.9±3.7 x 10^2 WBC/mm^3 in data set [3] (60 mg/kg ip single, day 3); 60.0 x 10^2 WBC/mm^3 in data set [3] (60 mg/kg ip single, day 8); 36.0 x 10^2 WBC/mm^3 in data set [3] (60 mg/kg ip single, day 15); 20.4±2.5 x 10^2 WBC/mm^3 in data set [3] (80 mg/kg ip single, day 3).

As for `CO[C@H]1O[C@H](CNC(=O)N(CCCl)N=O)[C@@H](O)[C@H](O)[C@H]1NC(=O)N(CCCl)N=O` [Example 3], the antibacterial activity entry in the data set with bacteria is on record as “void of antibacterial activities”. For the same compound, the ILS is given as 400% in the data set with leukemia L-1210 (2.2 mg/kg/day ip, 5 successive days); 370% in the data set with leukemia L-1210 (4.5 mg/kg/day orally); 717% in the data set with leukemia L-1210 (single ip, 7~15 mg/kg). The 60-days survivors entry with leukemia L-1210 (single ip, 7~15 mg/kg) is given as “all six animals tested survived”. For the same compound, the Activity entry in data set [1] (setting [12]), in data set [2] (setting [12]), in data set [4] (setting [12]) and in [5] (setting [12]) was “++ or +++” in each case. Further, the “bone marrow toxicity compared with CCNU” value in [3] (mouse, in vivo) is given as “less than that of CCNU”. In addition, in data set [3] (mouse, in vivo), the “bone marrow toxicity compared with GCNU” value was “comparable to GCNU”. Besides, in [6], the diabetogenic activity entry is recorded as “nondiabetogenic”.

As for `CO[C@@H]1O[C@H](CO)[C@@H](O)[C@H](O)[C@H]1NC(=O)N(CCCl)N=O` [Example 4, methyl N-carbamyl-N'-(2-chloroethyl)-N'-nitroso-2-amino-2-deoxy-β-D-glucopyranoside], the antibacterial activity entry in the data set with bacteria is “not found to be either diabetogenic or exhibited any antibacterial activities”. Besides, the ILS in the data set with leukemia L-1210 (3.2 mg/kg/day ip D1~5) is listed as 480%; in the data set with leukemia L-1210 (6.3 mg/kg/day po D1~5), 385%; with leukemia L-1210 (single ip, 8~25 mg/kg), 717%. Moreover, the 60-days survivors result with leukemia L-1210 (single ip, 8~25 mg/kg) is on record as “all six test animals surviving after 60-days”. Moreover, the Activity entry is “++ or +++” in [1] (12.5 mg/kg/day ip D1~5, BDF1 mice); “++ or +++” in data set [2] (setting [13]); “++ or +++” in [4] (setting [13]); “++ or +++” in data set [5] (setting [13]). For the same compound, the “accumulation of ascites tumor cells” value in data set [4] (setting [14]) and in data set [5] (setting [14]) was “ascites cells accumulation was not detectable” each time. Moreover, the “antitumor activity compared with its α-anomer” value in data set [7] was 110~120%. Moreover, the “bone marrow toxicity, less than the α-anomer” value in [3] (LD10 dosage) is 5~20%. In addition, in data set [3] (LD10 dosage, 3, 8 and 15 days), the “peripheral white blood cell count, higher than that of the α-anomer” value is reported as 5~20%. In [6], the diabetogenic activity entry is “not found to be either diabetogenic”.

Consider `CO[C@@H]1O[C@H](CNC(=O)N(CCCl)N=O)[C@@H](O)[C@H](O)[C@H]1NC(=O)N(CCCl)N=O` [Example 7, methyl di-N,N'-[N-(2-chloroethyl)-N-nitroso-carbamyl]-2,6-di-amino-2,6-di-deoxy-3-D-glucopyranoside], for which, in the data set with bacteria, the antibacterial activity entry is reported as “neither diabetogenic nor antibacterial activities”. In addition, the “antitumor activity compared with its α-anomer” value in data set [7] is 5~20%. In data set [3] (vs compound of example 3), the “bone marrow toxicity compared with its α-anomer” value is “reduced bone marrow toxicities”. Moreover, the diabetogenic activity entry in [6] is reported as “neither diabetogenic nor antibacterial activities”.

As to `CCCCO[C@@H]1O[C@H](CO)[C@@H](O)[C@H](O)[C@H]1NC(=O)N(CCCl)N=O` [Example 9 3-anomer, n-butyl N-carbamyl-N'-(2-chloroethyl)-N'-nitroso-2-amino-2-deoxy-3-D-glucopyranoside], the antibacterial activity entry in the data set on bacteria is given as “neither diabetogenic nor antibacterial activities”. In addition, in data set [7], the “antitumor activity compared with the compounds of examples 1 and 4” value is “same level of anitumor activity”. Further, the “bone marrow toxicity compared with the compounds of examples 1 and 4” value in data set [3] (mouse, in vivo) was “same low levels”. Also, in data set [6], the diabetogenic activity result is given as “neither diabetogenic nor antibacterial activities”.

For `CCCCO[C@H]1O[C@H](CO)[C@@H](O)[C@H](O)[C@H]1NC(=O)N(CCCl)N=O` [Example 9 α-anomer, n-butyl N-carbamyl-N'-(2-chloroethyl)-N'-nitroso-2-amino-2-deoxy-α-D-glucopyranoside], the antibacterial activity result in the data set on bacteria was “neither diabetogenic nor antibacterial activities”. Moreover, the “antitumor activity compared with the compounds of examples 1 and 4” value in [7] is on record as “same level of anitumor activity”. For the same compound, the “bone marrow toxicity compared with the compounds of examples 1 and 4” value in data set [3] (mouse, in vivo) was “same low levels”. Also, the diabetogenic activity result in [6] was “neither diabetogenic nor antibacterial activities”.

Take `CO[C@@H]1O[C@H](CNC(=O)N(CCCl)N=O)[C@@H](O)[C@H](O)[C@H]1O` [Example 12, methyl N-carbamyl-N'-(2-chloroethyl)-N'-nitroso-6-amino-6-deoxy-β-D-glucopyranoside]: in the data set with bacteria, the antibacterial activity entry is on record as “neither diabetogenic nor antibacterial activities”. Besides, the “antitumor activity compared with its α-anomer” value in data set [7] is 110~120%. Also, in [3] (vs α-anomer), the “reduced bone marrow toxicity compared with its α-anomer” value is on record as 110~120%. Further, the diabetogenic activity result in data set [6] is “neither diabetogenic nor antibacterial activities”.
